Data reported in patent US10772934B2 (Longevity Biotech, Inc., priority 2010, dated 2020).
No end group written: not given here.

Assays:
VIPR1 = biological target: T1, VIPR1 (Homo sapiens, UniProt P32241); experiment: cAMP Hunter cell line functional assay, agonist mode (DiscoveRx HitHunter cAMP XS+); format: cell-based; conditions: for Mean RLU: Cell Line VIPR1, Mode Agonist, Readout cAMP
T1 sequence (P32241 31-457): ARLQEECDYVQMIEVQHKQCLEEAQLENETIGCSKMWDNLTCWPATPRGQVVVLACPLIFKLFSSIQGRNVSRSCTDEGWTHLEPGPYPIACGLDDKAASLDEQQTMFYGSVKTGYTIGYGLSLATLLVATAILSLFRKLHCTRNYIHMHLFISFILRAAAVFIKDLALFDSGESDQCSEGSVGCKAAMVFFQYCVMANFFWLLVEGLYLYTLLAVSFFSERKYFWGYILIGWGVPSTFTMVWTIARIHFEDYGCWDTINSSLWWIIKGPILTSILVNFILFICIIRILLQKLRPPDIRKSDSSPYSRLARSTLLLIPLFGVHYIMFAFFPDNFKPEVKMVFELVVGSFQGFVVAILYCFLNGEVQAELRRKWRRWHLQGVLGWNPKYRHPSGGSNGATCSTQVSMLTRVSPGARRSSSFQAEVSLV
Procedure: (§1) Once it was established that the cells were healthy and growing normally, cells were passaged from flasks using cell dissociation reagent buffer and seeded into white walled clear bottom 384-well microplates for compound profiling. For profiling, cells were seeded at a density of 10,000 cells per well in a total volume of 20 μL and were allowed to adhere and recover overnight prior to compound addition. cAMP modulation was determined using the DiscoveRx HitHunter cAMP XS+ assay.
(§2) For profiling compound in agonist mode, the cells were incubated in the presence of compound at 37° C. for 30 minutes. […] After appropriate compound incubation, assay signal was generated through incubation with DiscoverX lysis cocktail according to the manufacturers standard protocol. Dose curves were plotted using GraphPad Prism or Activity Base. Percentage activity is calculated using the following formula: % Activity=100%×(mean RLU of test sample−mean RLU of vehicle control)/(mean RLU of MAX control−mean RLU of vehicle control).

VIPR2 = biological target: T2, VIPR2 (Homo sapiens, UniProt P41587); experiment: as above; format: cell-based; conditions: for Mean RLU: Cell Line VIPR2, Mode Agonist, Readout cAMP
T2 construct: host or cells: cAMP Hunter cell lines (CHO-K1 is named only in the prophetic assay)
T2 sequence (P41587 24-438): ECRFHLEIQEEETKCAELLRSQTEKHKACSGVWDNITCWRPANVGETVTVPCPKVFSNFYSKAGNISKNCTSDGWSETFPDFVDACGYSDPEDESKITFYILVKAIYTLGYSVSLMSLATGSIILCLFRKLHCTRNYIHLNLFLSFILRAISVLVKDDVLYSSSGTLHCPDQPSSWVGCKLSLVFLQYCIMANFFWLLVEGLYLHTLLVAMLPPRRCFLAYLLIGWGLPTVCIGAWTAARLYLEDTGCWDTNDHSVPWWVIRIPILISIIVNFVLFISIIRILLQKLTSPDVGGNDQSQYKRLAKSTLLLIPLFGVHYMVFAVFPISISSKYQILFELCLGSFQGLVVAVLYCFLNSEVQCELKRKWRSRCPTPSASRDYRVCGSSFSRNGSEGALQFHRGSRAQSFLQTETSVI
Procedure: as §1, §2

[1] = in the blood stream; cited from earlier work
calcitonin (CT) receptor = conditions: cited from earlier work
[2] = biological target: calcitonin-gene related peptide (CGRP) receptors (Homo sapiens, UniProt O60894+Q16602); conditions: cited from earlier work
adrenomedullin receptors = adrenomedullin receptors (Homo sapiens, UniProt Q16602); conditions: cited from earlier work
G-actin monomers = conditions: 1:1 ratio; read-out: Kd, sequestration of G-actin monomers; cited from earlier work
Glucagon receptor = biological target: T3, Glucagon receptor (Rattus norvegicus, UniProt P30082); conditions: cited from earlier work
T3 construct: from tissue; host or cells: rat liver membranes

[3] = tested on: vasoactive intestinal peptide (VIP); conditions: read-out: IC50, selective VIP antagonist; cited from earlier work
glucagon receptors = glucagon receptors (Homo sapiens, UniProt P47871); conditions: cited from earlier work
secretin receptors = secretin receptors (Homo sapiens, UniProt P47872); conditions: cited from earlier work
GRF receptors = biological target: T4, GRF receptors (Homo sapiens, UniProt Q02643); conditions: cited from earlier work
T4 sequence (Q02643 23-423): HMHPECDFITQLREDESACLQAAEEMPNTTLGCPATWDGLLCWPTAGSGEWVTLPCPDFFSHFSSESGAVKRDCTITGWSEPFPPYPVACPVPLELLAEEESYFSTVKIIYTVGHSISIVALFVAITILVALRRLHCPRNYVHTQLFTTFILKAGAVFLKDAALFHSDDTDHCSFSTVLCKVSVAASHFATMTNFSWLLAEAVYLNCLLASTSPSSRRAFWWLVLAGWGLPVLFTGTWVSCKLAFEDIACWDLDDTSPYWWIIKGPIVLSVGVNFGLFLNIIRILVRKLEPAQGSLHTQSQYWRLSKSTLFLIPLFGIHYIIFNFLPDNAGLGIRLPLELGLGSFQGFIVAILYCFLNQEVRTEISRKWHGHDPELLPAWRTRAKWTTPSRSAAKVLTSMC

T3 sequence (P30082 27-485): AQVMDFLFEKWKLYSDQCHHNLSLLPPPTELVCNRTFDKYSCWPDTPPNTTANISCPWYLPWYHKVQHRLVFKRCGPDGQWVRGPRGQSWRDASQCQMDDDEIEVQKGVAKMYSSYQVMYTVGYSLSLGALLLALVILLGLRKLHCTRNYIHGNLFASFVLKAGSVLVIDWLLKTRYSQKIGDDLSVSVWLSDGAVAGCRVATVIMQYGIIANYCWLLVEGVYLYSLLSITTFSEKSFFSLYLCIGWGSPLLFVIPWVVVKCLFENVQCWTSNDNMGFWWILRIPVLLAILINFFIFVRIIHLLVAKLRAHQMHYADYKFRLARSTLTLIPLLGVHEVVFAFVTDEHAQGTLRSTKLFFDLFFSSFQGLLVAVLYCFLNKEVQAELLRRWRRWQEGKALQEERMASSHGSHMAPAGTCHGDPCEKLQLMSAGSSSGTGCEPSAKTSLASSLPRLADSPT
Sequence of secretin receptors (P47872 23-440): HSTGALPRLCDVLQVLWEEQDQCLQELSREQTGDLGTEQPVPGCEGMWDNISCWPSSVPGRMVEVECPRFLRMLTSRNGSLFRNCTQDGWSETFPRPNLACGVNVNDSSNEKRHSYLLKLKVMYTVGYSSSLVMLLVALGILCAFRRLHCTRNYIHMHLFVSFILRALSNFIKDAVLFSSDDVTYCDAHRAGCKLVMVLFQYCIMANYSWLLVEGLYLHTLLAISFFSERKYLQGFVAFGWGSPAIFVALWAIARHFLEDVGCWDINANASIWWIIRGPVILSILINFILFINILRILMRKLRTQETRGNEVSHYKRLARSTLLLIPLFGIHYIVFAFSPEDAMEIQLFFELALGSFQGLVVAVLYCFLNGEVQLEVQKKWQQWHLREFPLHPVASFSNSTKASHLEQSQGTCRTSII
Sequence of calcitonin-gene related peptide (CGRP) receptors (Q16602 23-461): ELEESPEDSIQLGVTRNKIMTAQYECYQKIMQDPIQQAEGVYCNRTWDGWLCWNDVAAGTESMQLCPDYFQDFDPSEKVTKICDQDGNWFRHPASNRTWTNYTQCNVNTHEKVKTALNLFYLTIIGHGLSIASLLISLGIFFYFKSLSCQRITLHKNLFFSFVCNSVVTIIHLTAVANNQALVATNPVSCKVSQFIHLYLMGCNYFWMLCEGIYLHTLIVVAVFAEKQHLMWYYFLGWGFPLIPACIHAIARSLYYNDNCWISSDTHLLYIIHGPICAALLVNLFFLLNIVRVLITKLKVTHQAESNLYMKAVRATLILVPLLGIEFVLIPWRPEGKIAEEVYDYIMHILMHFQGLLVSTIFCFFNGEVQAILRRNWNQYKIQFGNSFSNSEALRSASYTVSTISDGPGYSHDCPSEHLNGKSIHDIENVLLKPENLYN
Sequence of calcitonin-gene related peptide (CGRP) receptors (O60894 27-148 partner): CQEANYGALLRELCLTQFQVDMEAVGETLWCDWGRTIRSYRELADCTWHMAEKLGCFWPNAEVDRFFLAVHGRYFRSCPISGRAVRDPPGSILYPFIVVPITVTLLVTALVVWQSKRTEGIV
Sequence of adrenomedullin receptors (Q16602 23-461): as the sequence (Q16602 23-461) above
Sequence of glucagon receptors (P47871 26-477): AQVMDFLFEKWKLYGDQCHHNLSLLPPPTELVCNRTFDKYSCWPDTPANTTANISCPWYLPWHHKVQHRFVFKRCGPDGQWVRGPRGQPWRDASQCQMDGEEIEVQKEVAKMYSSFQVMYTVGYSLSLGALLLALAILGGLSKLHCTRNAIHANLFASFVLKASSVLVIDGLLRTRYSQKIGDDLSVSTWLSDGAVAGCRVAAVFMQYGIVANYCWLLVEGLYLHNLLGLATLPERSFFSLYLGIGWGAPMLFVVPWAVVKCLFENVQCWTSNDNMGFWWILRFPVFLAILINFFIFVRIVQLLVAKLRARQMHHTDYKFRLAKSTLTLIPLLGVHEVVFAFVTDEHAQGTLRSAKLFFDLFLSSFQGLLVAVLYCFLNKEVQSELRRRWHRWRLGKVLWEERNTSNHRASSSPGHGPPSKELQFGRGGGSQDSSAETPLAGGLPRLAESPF

Question: With `CC[C@H](C)[C@H](NC(=O)[C@H]1CCC[C@@H]1NC(=O)[C@H](CC(N)=O)NC(=O)[C@H](CC(C)C)NC(=O)[C@H](Cc1ccc(O)cc1)NC(=O)[C@H]1CNC[C@@H]1NC(=O)[C@H](CCCCN)NC(=O)[C@@H](NC(=O)[C@H]1CCC[C@@H]1NC(=O)[C@H](CC(C)C)NC(=O)[C@H](CCC(N)=O)NC(=O)[C@H](CCCCN)NC(=O)[C@H]1CNC[C@@H]1NC(=O)[C@H](CC(C)C)NC(=O)[C@H](CCCNC(=N)N)NC(=O)[C@H]1CCC[C@@H]1NC(=O)[C@H](Cc1ccc(O)cc1)NC(=O)[C@H](CC(N)=O)NC(=O)[C@H](CC(=O)O)NC(=O)[C@@H](NC(=O)[C@H](Cc1ccccc1)NC(=O)[C@@H](NC(=O)[C@H](C)NC(=O)[C@H](CC(=O)O)NC(=O)[C@H](CO)NC(=O)[C@@H](N)Cc1c[nH]cn1)C(C)C)[C@@H](C)O)C(C)C)C(=O)N[C@@H](CC(C)C)C(=O)NC(CC(N)=O)CC(N)=O` [Compound 8, HSDAVFTDNYXRLZKQLXVKZYLNXILN] as the molecule, how does the “Mean RLU” value (VIPR1; [Compound] 1.00E−08 M) read?
Answer: 13700.0 RLU

Question: What about the “Mean RLU” value (VIPR1; [Compound] 1.00E−09 M) of the same molecule?
Answer: 10600.0 RLU

Question: And the “Mean RLU” value (VIPR1; [Compound] 1.00E−10 M)?
Answer: 9060.0 RLU

Question: What about the “Mean RLU” value (VIPR1; [Compound] 1.00E−11 M) of the same molecule?
Answer: 10500.0 RLU

Question: And the “Mean RLU” value (VIPR1; [Compound] 1.00E−12 M)?
Answer: 10340.0 RLU

Question: What about the “Mean RLU” value (VIPR1; [Compound] 5.00E−08 M) of the same molecule?
Answer: 95460.0 RLU

Question: What about the “Mean RLU” value (VIPR1; [Compound] 5.00E−09 M) of the same molecule?
Answer: 13200.0 RLU

Question: What about the “Mean RLU” value (VIPR1; [Compound] 5.00E−10 M) of the same molecule?
Answer: 9820.0 RLU

Question: And the “activation of VIPR1” value (VIPR1; agonist mode, FIG. 3)?
Answer: fully activate

Question: What about the “Mean RLU” value (VIPR2; [Compound] 1.00E−07 M) of the same molecule?
Answer: 8920.0 RLU

Question: And the “Mean RLU” value (VIPR2; [Compound] 1.00E−08 M)?
Answer: 9560.0 RLU

Question: What about the “Mean RLU” value (VIPR2; [Compound] 1.00E−09 M) of the same molecule?
Answer: 8560.0 RLU

Question: And the “Mean RLU” value (VIPR2; [Compound] 1.00E−10 M)?
Answer: 7560.0 RLU

Question: And the “Mean RLU” value (VIPR2; [Compound] 1.00E−11 M)?
Answer: 9280.0 RLU

Question: And the “Mean RLU” value (VIPR2; [Compound] 1.00E−12 M)?
Answer: 8300.0 RLU

Question: What about the “Mean RLU” value (VIPR2; [Compound] 5.00E−07 M) of the same molecule?
Answer: 10200.0 RLU

Question: What about the “Mean RLU” value (VIPR2; [Compound] 5.00E−08 M) of the same molecule?
Answer: 9200.0 RLU

Question: And the “Mean RLU” value (VIPR2; [Compound] 5.00E−09 M)?
Answer: 8560.0 RLU

Question: And the “Mean RLU” value (VIPR2; [Compound] 5.00E−10 M)?
Answer: 9820.0 RLU

Question: And the “interaction with VIPR2” value (VIPR2; agonist mode)?
Answer: does not interact substantially

Question: And the “activation of VIPR2” value (VIPR2; agonist mode, FIG. 3)?
Answer: not activate

Question: Which half-life [1] does the source give for `CC[C@H](C)[C@H](NC(=O)[C@H](CO)NC(=O)[C@H](CC(N)=O)NC(=O)[C@H](CC(C)C)NC(=O)[C@H](Cc1ccc(O)cc1)NC(=O)[C@H](CCCCN)NC(=O)[C@H](CCCCN)NC(=O)[C@@H](NC(=O)[C@H](C)NC(=O)[C@H](CCSC)NC(=O)[C@H](CCC(N)=O)NC(=O)[C@H](CCCCN)NC(=O)[C@H](CCCN=C(N)N)NC(=O)[C@H](CC(C)C)NC(=O)[C@H](CCCN=C(N)N)NC(=O)[C@@H](NC(=O)[C@H](Cc1ccc(O)cc1)NC(=O)[C@H](CC(N)=O)NC(=O)[C@H](CC(=O)O)NC(=O)[C@@H](NC(=O)[C@H](Cc1ccccc1)NC(=O)[C@@H](NC(=O)[C@H](C)NC(=O)[C@H](CC(=O)O)NC(=O)[C@H](CO)NC(=O)[C@@H](N)Cc1c[nH]cn1)C(C)C)[C@@H](C)O)[C@@H](C)O)C(C)C)C(=O)N[C@@H](CC(C)C)C(=O)N[C@@H](CC(N)=O)C(N)=O` [VIP] here?
Answer: about two

Question: Which “ED50, stimulation of cAMP formation” value (calcitonin (CT) receptor; calcitonin (CT) receptor) does the source give for “Calcitoninreceptor-stimulating peptide-1 (SCNTATCMTHRLVGLLSRSGSMVRSNLLPTKMGFKVFG-NH2; ends and bridges not checked; UniProt Q862B1 81-118, looked up)” here?
Answer: 0.2 nM

Question: And the “Potency in stimulating cAMP formation relative to CT” value (calcitonin (CT) receptor; greater than CT)?
Answer: 350 fold

Question: And the “Activity at CGRP receptors” value [2]?
Answer: Displays no activity at calcitonin-gene related peptide (CGRP) and adrenomedullin

Question: And the “Activity at adrenomedullin receptors” value (adrenomedullin receptors)?
Answer: Displays no activity at calcitonin-gene related peptide (CGRP) and adrenomedullin

Question: For Thymosin β4, which Kd (G-actin monomers) is on record?
Answer: 700 to 1000 nM

Question: What does the source list for des-His1-{Glu9}-Glucagon (1-29) amide?
Answer: Agonist activity at the glucagon receptor (Glucagon receptor): adenylyl cyclase activation in rat liver membranes); displays no agonist activity.; pA2 for inhibition of glucagon-induced adenylyl cyclase activation (Glucagon receptor; rat liver membranes): (Glucagon receptor antagonist (pA2 = 7.2 for inhibition of glucagon-induced

Question: Which IC50 [3] does the source give for {D-p-Cl-Phe6,Leu17}-VIP here?
Answer: 126 nM

Question: And the “Activity on glucagon receptors” value (glucagon receptors)?
Answer: Displays no activity on glucagon, secretin or GRF receptors.)

Question: And the “Activity on secretin receptors” value (secretin receptors)?
Answer: Displays no activity on glucagon, secretin or GRF receptors.)

Question: What about the “Activity on GRF receptors” value (GRF receptors) of the same molecule?
Answer: Displays no activity on glucagon, secretin or GRF receptors.)
